{"source": "patent US8367607B2", "about": "“Oxyntomodulin peptide analogue” (Eli Lilly and Company, priority 2009, dated 2013)", "key": {"[1]": {"experiment": "Food intake, body weight and body composition in DIO mice, Study 1: two week treatment", "type": "in vivo, diet-induced obese (DIO) C57BL/6 mice", "method": "Three to four months old male diet-induced obese (DIO) C57BL/6 mice are used. Animals are individually housed in a temperature-controlled (24° C.) facility with a 12 hour light/dark cycle (lights on 22:00), and have free access to food and water. […] Body weight and the weight of food plus the hopper are measured at the same time. Food consumed in the preceding 24 hours is calculated by subtracting current weight of food plus the hopper from that of the previous day. Absolute changes in body weight are calculated by subtracting the body weight of the animal prior to the first injection. […] Fat free mass is calculated by subtracting fat mass from total body weight."}, "[2]": {"experiment": "Food intake, body weight, body composition, calorimetry and plasma markers in DIO mice, Study 2: four week treatment", "type": "in vivo, diet-induced obese (DIO) C57BL/6 mice", "method": "Three to four months old male diet-induced obese (DIO) C57BL/6 mice are used. Animals are individually housed in a temperature-controlled (24° C.) facility with a 12 hour light/dark cycle (lights on 22:00), and have free access to food and water. After 2 weeks acclimation to the facility, mice are randomized to treatment groups (n=8-10/group), each group having similar mean body weight and fat mass. Before the experiment, mice are subcutaneously (sc) injected with vehicle solution and weighed for 2 days to acclimate them to the procedures.\nBody weight and the weight of food plus the hopper are measured at the same time. Food consumed in the preceding 24 hours is calculated by subtracting current weight of food plus the hopper from that of the previous day. Absolute changes in body weight are calculated by subtracting the body weight of the animal prior to the first injection. On days 1, 14 and 28 total fat mass is measured by nuclear magnetic resonance (NMR) using an Echo Medical System (Houston, Tex.) instrument. Fat free mass is calculated by subtracting fat mass from total body weight."}, "[3]": {"experiment": "Oral glucose tolerance test after 2-week treatment in DIO mice", "type": "in vivo", "details": "for Glucose AUC (0 to 120 min), oral glucose load, MEAN: DIO mice", "method": "(§1) Fifty-six hours after the last injection as described in Example 7 (Study 1) in DIO mice, mice are fasted for 16 hours prior to the start of the glucose tolerance test. At time 0, animals are given 2 g/kg dextrose by oral gavage or intraperitoneal (IP) injection. Blood is collected by tail vein bleeding at 0, 15, 30, 60 and 120 minutes after glucose challenge. Glucose concentration is measured by glucometer."}, "[4]": {"experiment": "Intraperitoneal glucose tolerance test after 4-week treatment in DIO mice", "type": "in vivo", "details": "for Glucose AUC (0 to 120 min), intraperitoneal glucose load, MEAN: after 4 week treatment, DIO mice", "method": "as §1\nAn intraperitoneal glucose tolerance test (IPGTT) is performed on day 29, 3 days after the last injection as described in Example 7 (Study 2) in DIO mice."}, "[5]": {"experiment": "Intraperitoneal glucose tolerance test in lean mice", "type": "in vivo, C57BL/6 mice", "details": "16 hours before test", "method": "Nine week old male C57BL/6 mice are used in the study Animals are randomized into groups based on fed body weight. […] Food is removed at the time of injection of peptide or vehicle. At time 0, animals are given 2 g/kg dextrose by IP injection. Blood is collected by tail vein bleeding at 0, 3, 6, 12 and 30 minutes after glucose challenge. Glucose concentration is measured by glucometer. Insulin is measure by Mesoscale."}, "[6]": {"experiment": "Oral glucose tolerance test (OGTT) in ob/ob mice", "type": "in vivo", "details": "single injection 7.5 nmole/kg", "method": "Two to three months old male ob/ob mice are individually housed in a temperature-controlled (24° C.) facility with a 12 hour light/dark cycle (lights on 2200 hours), and have free access to the standard chow and water. After at least 2 weeks of acclimation to the facility, 3-hours fasting blood glucose is measured by tail vein bleeding at 9 AM. Mice with blood glucose under 180 mg/dL are not used. Remaining animals are randomized to treatment groups (N=6-7/group), each group having similar average blood glucose level. The mice are given access to food until the time of injection. […] Food is removed at the time of injection. An OGTT (Table 7) or IPGTT (Table 8) is performed 16 hours after the peptide injection. At time 0, animals are given 2 g/kg dextrose by oral gavage (Table 7) or intraperitoneal injection (Table 8). Blood is collected by tail vein bleeding at 0, 15, 30, 60 and 120 minutes after glucose challenge. Glucose concentration is measured by glucometer."}, "[7]": {"experiment": "Acute effects on plasma FGF21, triglyceride levels and hepatic gene expression in DIO mice", "type": "in vivo, diet-induced obese C57BL/6 mice", "details": "single sc injection 22.5 nmole/kg", "method": "The day before the study, mice are randomized to treatment groups (N=7/group), each group having similar mean body weight. […] Food is removed at the time of injection of peptide or vehicle. The following morning (approximately 10 AM), the animals are sacrificed to collect plasma and liver tissue. Glucose and triglyceride concentrations are measured using a Hitachi blood chemistry analyzer. Gene expression is determined by RT-PCR. Malonyl-CoA and acetyl-CoA levels are measured by HPLC."}, "[8]": {"details": "high dose, completion of 4-week study"}}, "note": "Marks after values point to notes of the source that are not given here.", "data": [{"substance": "His-(Aib)-Gln-Gly-Thr-Phe-Thr-Ser-Asp-Tyr-Ser-Lys-Tyr-Leu-Asp-Ser-Lys-Lys-Ala-Gln-Glu-Phe-Val-Gln-Trp-Leu-Leu-Asn-(Aib)-Gly-Arg-Asn-Arg-Asn-Asn-Ile-Ala-Cys(20 kDa PEG)-Cys(20 kDa PEG)", "values": [{"measurement": "cumulative weight loss, reduction compared to the vehicle group", "setting": "[1]; 7.5 nmole/kg every 3 days, 2 weeks", "value": "about 9%"}, {"measurement": "Fat mass loss (g fat weight change for 14 days)", "setting": "[1]; 7.5 nmole/kg sc every 3 days", "value": "-2.2 ± 0.3", "unit": "g"}, {"measurement": "Overall weight loss (g weight change for 14 days)", "setting": "[1]; 7.5 nmole/kg sc every 3 days", "value": "-3.1 ± 0.4", "unit": "g"}, {"measurement": "Total food intake (g total for 14 days)", "setting": "[1]; 7.5 nmole/kg sc every 3 days", "value": "35.0 ± 0.8", "unit": "g"}, {"measurement": "vehicle controlled cumulative weight loss", "setting": "[1]; 15 nmole/kg every 3 days, 2 weeks", "value": 18, "unit": "%"}, {"measurement": "Fat mass loss (g fat weight change for 14 days)", "setting": "[1]; 15 nmole/kg sc every 3 days", "value": "-3.9 ± 0.7", "unit": "g"}, {"measurement": "Overall weight loss (g weight change for 14 days)", "setting": "[1]; 15 nmole/kg sc every 3 days", "value": "-6.1 ± 0.9", "unit": "g"}, {"measurement": "Total food intake (g total for 14 days)", "setting": "[1]; 15 nmole/kg sc every 3 days", "value": "29.8 ± 1.5", "unit": "g"}, {"measurement": "cumulative food intake reduction compared to the vehicle group", "setting": "[1]; 15 nmole/kg, end of 2-week study", "value": 27, "unit": "%"}, {"measurement": "effect on food intake and body weight", "setting": "[1]; 7.5 and 15 nmole/kg, 2 weeks", "value": "dose-dependent reduction"}, {"measurement": "Total food intake (g total for the first 14 days)", "setting": "[2]; 6.7 nmole/kg sc every 3 days", "value": "36.0 ± 1.1", "unit": "g"}, {"measurement": "Fat mass loss (g fat weight change for 28 days)", "setting": "[2]; 6.7 nmole/kg sc every 3 days", "value": "-0.7 ± 0.2", "unit": "g"}, {"measurement": "Overall weight loss (g weight change for 28 days)", "setting": "[2]; 6.7 nmole/kg sc every 3 days", "value": "-2.0 ± 0.4", "unit": "g"}, {"measurement": "weight loss compared with 22.5 nmole/kg dose of the positive control", "setting": "[2]; 20 nmole/kg", "value": "significantly greater weight loss"}, {"measurement": "Total food intake (g total for the first 14 days)", "setting": "[2]; 20.0 nmole/kg sc every 3 days", "value": "26.1 ± 1.4", "unit": "g"}, {"measurement": "Fat mass loss (g fat weight change for 28 days)", "setting": "[2]; 20.0 nmole/kg sc every 3 days", "value": "-7.5 ± 0.7", "unit": "g"}, {"measurement": "Overall weight loss (g weight change for 28 days)", "setting": "[2]; 20.0 nmole/kg sc every 3 days", "value": "-11.1 ± 0.9", "unit": "g"}, {"measurement": "maximal weight reduction, of the initial body weight", "setting": "[2]; 20 nmole/kg, after 15 days of treatment", "value": "about 25%"}, {"measurement": "increase of averaged 24-hour energy expenditure versus vehicle", "setting": "[2]; 20 nmole/kg, indirect calorimetry, day 21", "value": 18, "unit": "%"}, {"measurement": "leptin levels versus vehicle treated controls", "setting": "[2]; [8]", "value": "significantly reduced"}, {"measurement": "plasma adiponectin levels versus vehicle treated controls", "setting": "[2]; [8]", "value": "statistically significantly difference"}, {"measurement": "cumulative food intake", "setting": "[2]; high doses (20 nmole/kg)", "value": "significantly decreased"}, {"measurement": "body weight versus positive control group", "setting": "[2]; lower doses (6.7 nmole/kg)", "value": "decreased body weight to a similar degree as seen in the positive control group"}, {"measurement": "Glucose AUC (0 to 120 min), oral glucose load, MEAN", "setting": "[3]; 7.5 nmole/kg", "value": "17722* mg * min/dL"}, {"measurement": "Glucose AUC (0 to 120 min), oral glucose load, MEAN", "setting": "[3]; 15 nmole/kg", "value": "17518* mg * min/dL"}, {"measurement": "blood glucose at all time points before and after the oral glucose challenge versus vehicle", "setting": "[3]; all doses", "value": "significantly lowered"}, {"measurement": "Glucose AUC (0 to 120 min), intraperitoneal glucose load, MEAN", "setting": "[4]; 6.7 nmole/kg", "value": 30073, "unit": "mg·min/dL"}, {"measurement": "Glucose AUC (0 to 120 min), intraperitoneal glucose load, MEAN", "setting": "[4]; 20.0 nmole/kg", "value": "19264* mg * min/dL"}, {"measurement": "blood glucose at all time points before and after IP glucose challenge versus vehicle", "setting": "[4]; high dose of analogue, both doses of positive control, day 29", "value": "significantly lowered"}, {"measurement": "glucose levels after IP glucose challenge", "setting": "[4]; low dose, day 29", "value": "little effect"}, {"measurement": "Glucose AUC (0 to 30 min), IPGTT in lean mice, MEAN", "setting": "[5]; 5 nmole/kg", "value": 7059, "unit": "mg·min/dL"}, {"measurement": "Insulin AUC (0 to 30 min), IPGTT in lean mice, MEAN", "setting": "[5]; 5 nmole/kg", "value": "30.67* ng * min/mL"}, {"measurement": "Glucose AUC (0 to 30 min), IPGTT in lean mice, MEAN", "setting": "[5]; 15 nmole/kg", "value": "6103* mg * min/dL"}, {"measurement": "Insulin AUC (0 to 30 min), IPGTT in lean mice, MEAN", "setting": "[5]; 15 nmole/kg", "value": "45.26* ng * min/mL"}, {"measurement": "blood glucose in ob/ob mice", "setting": "[6]", "value": "normalized blood glucose"}, {"measurement": "blood glucose levels at all time points after glucose challenge versus vehicle control group", "setting": "[6]; ob/ob mice", "value": "significantly lower"}, {"measurement": "decrease of liver acetyl-CoA concentration versus vehicle control", "setting": "[7]; DIO mice", "value": 39, "unit": "%"}, {"measurement": "decrease of liver malonyl-CoA concentration versus vehicle control", "setting": "[7]; DIO mice", "value": 63, "unit": "%"}, {"measurement": "decrease of hepatic ChREBP gene expression", "setting": "[7]; RT-PCR", "value": 52, "unit": "%"}, {"measurement": "decrease of hepatic PCSK9 gene expression", "setting": "[7]; RT-PCR", "value": 61, "unit": "%"}, {"measurement": "increase of hepatic pgc-1a gene expression", "setting": "[7]; RT-PCR", "value": 7, "unit": "fold"}, {"measurement": "induction of hepatic FGF21 gene expression", "setting": "[7]; RT-PCR", "value": 17, "unit": "fold"}, {"measurement": "increase in circulating FGF21", "setting": "[7]; plasma", "value": 6, "unit": "fold"}]}]}
